Our source for the IC50 and inhibition values is article PMC11233931, “Remodeling tumor‐associated macrophage for anti‐cancer effects by rational design of irreversible inhibition of mitogen‐activated protein kinase‐activated protein kinase 2” (MedComm, 2024).

Each structure is given as a SMILES string.

Series [1] is described as follows: Cell viability assay (CCK-8), PANC-1. In kind it is cell-based. The conditions noted are these: PANC-1 cells (pancreatic carcinoma), PANC-1, human pancreatic carcinoma, read-out: IC50 (μM) mean ± SD, cytotoxicity. The protocol: In cellular experiments, cells are seeded into either 6-well or 96-well plates and incubated overnight, proceeding with treatments as described in the figure legends or methods section. The cell inoculation numbers are outlined as follows: For assays measuring cell viability, between 3,000 to 5,000 cells are seeded per well in 96-well plates. For other cellular assays, the seeding density ranges from 5×10^5 to 1×10^6 cells per well in 6-well plates.
Cells was plated into 96-well plates and incubated overnight prior to introduction of varying concentrations of compounds or control solvent. Following a 72-hour exposure period, cell viability was determined using a Cell Counting Kit-8 assay (Life-iLab, China). Dose-response curves were fitted using a four-parameter method facilitated by SoftMax Pro, which was subsequently used for the computation of IC50 values.

Series [2] has as its target T1, 380 human recombinant protein kinases (Homo sapiens, UniProt Q8IWQ3).
T1 construct: purchased Eurofins (Celle Lévescault)
T1 sequence (Q8IWQ3 1-736): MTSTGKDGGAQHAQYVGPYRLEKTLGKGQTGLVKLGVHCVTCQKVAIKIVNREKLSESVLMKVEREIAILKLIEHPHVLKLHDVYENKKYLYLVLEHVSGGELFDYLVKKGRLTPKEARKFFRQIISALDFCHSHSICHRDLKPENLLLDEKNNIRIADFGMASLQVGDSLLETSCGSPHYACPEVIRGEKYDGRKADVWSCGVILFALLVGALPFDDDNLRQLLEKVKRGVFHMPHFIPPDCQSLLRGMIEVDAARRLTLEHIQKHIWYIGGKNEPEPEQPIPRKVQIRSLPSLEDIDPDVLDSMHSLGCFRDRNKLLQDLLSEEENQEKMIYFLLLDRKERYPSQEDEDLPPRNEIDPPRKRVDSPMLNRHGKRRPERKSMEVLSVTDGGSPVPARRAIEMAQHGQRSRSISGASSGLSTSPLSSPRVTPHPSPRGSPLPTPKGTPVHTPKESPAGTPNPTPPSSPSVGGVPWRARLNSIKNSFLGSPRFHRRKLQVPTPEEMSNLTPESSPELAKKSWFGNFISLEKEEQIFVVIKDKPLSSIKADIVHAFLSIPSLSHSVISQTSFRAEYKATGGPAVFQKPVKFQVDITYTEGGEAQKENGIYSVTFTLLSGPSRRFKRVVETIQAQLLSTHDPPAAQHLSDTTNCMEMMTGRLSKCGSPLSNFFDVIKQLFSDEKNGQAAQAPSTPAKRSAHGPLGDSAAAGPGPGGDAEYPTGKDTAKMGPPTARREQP
Kind of series: Eurofins kinase selectivity profile against 380 other human recombinant kinases (Table S2). Type of series: biochemical. The conditions noted are these: BrSK2(h), read-out: Inhibition rate. In a few lines: (§1)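 Outsourced panel: 380 human recombinant kinases; inhibitor tested at various concentrations; purpose: MK2 selectivity check.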

Series [3] addresses T2, 380 human recombinant protein kinases (Homo sapiens, UniProt P08922).
T2 construct: purchased Eurofins (Celle Lévescault)
The series is described as above. Type of series: biochemical. The conditions noted are these: Ros(h), read-out: Inhibition rate. In a few lines: as §1

In series [4] the target is T3, 380 human recombinant protein kinases (Homo sapiens, UniProt Q02750).
T3 construct: purchased Eurofins (Celle Lévescault)
The series is described as above. Type of series: biochemical. The conditions noted are these: MEK1(h), read-out: Inhibition rate. In a few lines: as §1

T3 sequence (Q02750 whole entry): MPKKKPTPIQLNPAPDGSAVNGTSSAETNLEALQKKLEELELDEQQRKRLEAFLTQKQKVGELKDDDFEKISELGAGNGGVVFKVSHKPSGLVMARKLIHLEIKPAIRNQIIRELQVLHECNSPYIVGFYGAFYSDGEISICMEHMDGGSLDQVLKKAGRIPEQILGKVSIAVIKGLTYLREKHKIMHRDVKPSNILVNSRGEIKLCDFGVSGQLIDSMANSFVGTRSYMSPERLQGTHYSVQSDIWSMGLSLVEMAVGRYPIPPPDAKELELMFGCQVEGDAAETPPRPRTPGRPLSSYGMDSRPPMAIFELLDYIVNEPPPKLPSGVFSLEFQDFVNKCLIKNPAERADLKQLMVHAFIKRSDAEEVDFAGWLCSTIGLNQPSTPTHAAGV
T2 sequence (P08922 28-2347): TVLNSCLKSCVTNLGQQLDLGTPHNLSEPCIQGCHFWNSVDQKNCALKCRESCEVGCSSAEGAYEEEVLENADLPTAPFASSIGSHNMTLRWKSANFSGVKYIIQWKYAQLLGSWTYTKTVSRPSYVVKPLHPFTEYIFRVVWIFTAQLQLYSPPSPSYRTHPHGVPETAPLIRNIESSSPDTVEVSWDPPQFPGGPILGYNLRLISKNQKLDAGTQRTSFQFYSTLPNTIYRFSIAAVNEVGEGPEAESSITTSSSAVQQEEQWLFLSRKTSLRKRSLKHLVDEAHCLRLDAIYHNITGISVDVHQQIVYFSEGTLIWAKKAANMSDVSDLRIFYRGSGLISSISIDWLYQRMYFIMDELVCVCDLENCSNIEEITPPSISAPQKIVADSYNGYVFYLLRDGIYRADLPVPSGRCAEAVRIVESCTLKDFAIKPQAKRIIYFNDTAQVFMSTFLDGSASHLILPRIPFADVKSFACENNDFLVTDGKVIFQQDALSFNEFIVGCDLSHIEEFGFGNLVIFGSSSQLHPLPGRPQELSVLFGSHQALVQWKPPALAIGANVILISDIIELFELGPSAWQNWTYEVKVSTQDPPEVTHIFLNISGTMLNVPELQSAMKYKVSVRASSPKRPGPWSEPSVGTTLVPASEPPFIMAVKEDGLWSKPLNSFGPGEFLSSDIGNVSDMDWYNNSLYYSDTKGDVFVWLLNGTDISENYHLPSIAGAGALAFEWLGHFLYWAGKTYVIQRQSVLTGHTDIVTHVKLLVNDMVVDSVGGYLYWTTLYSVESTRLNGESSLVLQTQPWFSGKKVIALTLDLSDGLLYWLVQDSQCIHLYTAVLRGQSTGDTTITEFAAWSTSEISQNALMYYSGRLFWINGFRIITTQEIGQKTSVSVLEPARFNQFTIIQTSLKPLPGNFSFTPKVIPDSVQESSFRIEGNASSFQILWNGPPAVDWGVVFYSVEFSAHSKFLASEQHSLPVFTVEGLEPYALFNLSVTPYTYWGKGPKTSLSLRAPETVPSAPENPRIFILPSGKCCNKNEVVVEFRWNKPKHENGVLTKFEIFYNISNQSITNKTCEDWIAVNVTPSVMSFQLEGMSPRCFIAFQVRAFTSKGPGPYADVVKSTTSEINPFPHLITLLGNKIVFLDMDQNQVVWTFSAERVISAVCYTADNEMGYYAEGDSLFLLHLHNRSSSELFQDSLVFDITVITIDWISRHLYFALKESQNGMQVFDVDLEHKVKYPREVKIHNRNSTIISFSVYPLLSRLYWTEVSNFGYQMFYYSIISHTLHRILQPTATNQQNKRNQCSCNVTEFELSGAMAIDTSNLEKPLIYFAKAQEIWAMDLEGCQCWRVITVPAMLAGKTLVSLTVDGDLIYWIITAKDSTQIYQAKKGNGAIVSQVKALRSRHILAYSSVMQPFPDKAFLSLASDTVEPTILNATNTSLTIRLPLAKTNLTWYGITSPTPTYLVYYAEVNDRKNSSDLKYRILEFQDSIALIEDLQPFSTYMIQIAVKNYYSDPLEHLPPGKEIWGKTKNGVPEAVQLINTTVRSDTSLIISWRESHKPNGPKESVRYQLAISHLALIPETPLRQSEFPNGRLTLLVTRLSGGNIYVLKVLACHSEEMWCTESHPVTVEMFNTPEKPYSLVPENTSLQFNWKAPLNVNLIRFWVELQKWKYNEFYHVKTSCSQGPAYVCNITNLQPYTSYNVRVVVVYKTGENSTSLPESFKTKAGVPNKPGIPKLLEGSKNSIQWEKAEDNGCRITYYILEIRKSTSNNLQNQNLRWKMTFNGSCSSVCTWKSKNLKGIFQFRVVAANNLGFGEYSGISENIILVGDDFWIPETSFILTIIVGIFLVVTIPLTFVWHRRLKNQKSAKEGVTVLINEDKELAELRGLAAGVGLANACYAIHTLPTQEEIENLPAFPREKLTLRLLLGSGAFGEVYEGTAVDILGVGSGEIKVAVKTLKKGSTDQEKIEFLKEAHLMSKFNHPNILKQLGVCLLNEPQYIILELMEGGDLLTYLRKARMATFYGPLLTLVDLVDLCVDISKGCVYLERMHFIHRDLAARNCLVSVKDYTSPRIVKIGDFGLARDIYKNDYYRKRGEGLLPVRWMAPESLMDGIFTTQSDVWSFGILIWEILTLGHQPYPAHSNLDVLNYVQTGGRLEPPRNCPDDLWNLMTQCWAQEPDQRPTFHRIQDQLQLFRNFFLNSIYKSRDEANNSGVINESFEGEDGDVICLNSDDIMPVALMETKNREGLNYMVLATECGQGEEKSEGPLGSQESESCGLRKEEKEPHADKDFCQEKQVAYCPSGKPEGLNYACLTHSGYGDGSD

As usually defined, the IC50 is the concentration that gives 50% inhibition. As a reminder, the inhibition is the change of the read-out against control, counted positive when it falls. In the case of `C=CC(=O)Nc1cc(-c2cc(-c3cc4c([nH]3)CCNC4=O)ccn2)ccc1OC(F)(F)F` [compound 11], the IC50 at 72 h in series [1] is 35.3 ± 1.4 µM. The inhibition at 0.01 µM in series [2] (10 nM) was -2%; in series [3] (10 nM), 1%; in series [4] (10 nM) it was -12%. The inhibition at 0.1 µM in series [2] (100 nM) was 6%; in series [3] (100 nM), 1%; in series [4] (100 nM) it was -4%. In addition, the inhibition at 1 µM in series [2] (1000 nM) is 26%; in series [3] (1000 nM), 6%; in series [4] (1000 nM), -8%.
